From PMC7269146, “Jingzhaotoxin-X, a gating modifier of Kv4.2 and Kv4.3 potassium channels purified from the venom of the Chinese tarantula Chilobrachys jingzhao” (The Journal of Venomous Animals and Toxins Including …, 2020)
Where a SMILES comes first, the peptide text is derived from it. Bridges are numbered along the chain shown (N, C = ends).

Biological target: T1, Kv4.2 (Rattus norvegicus, UniProt Q63881)
T1 construct: expressed in transfected cells; host or cells: HEK293t
T1 sequence (Q63881 1-630): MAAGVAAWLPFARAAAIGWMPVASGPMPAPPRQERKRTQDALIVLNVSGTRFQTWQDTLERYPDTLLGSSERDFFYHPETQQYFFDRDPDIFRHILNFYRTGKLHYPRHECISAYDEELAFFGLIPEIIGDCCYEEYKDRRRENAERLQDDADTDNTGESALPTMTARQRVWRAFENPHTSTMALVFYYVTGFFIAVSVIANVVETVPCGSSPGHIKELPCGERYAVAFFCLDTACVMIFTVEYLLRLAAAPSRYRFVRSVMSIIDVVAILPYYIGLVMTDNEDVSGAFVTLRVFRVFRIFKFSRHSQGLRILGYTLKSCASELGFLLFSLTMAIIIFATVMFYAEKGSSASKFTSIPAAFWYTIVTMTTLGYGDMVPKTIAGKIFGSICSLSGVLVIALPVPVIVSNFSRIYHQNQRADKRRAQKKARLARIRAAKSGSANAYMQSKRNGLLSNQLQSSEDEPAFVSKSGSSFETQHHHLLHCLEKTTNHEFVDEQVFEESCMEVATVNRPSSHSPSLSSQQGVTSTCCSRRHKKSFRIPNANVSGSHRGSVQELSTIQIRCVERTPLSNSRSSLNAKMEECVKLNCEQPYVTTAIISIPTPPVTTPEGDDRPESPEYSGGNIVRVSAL
Assay: microelectrode voltage-clamp, Xenopus laevis oocytes, Kv4.2
Format: cell-based
Conditions: +20 mV from -90 mV, n = 5, read-out: inhibition of Kv4.2 current
Text: Rat cDNA genes encoding Kv4.2 (Accession: NM_031730.2) and Kv4.3 (Accession: AB003587.1) were subcloned to vector pcDNA3.1. In addition, human cDNA genes encoding Nav1.7 (Accession: DQ857292.1) and Nav1.5 (Accession: AB158469.2) were subcloned to vectors pcDNA3.1-mod and pcDNA3.1, separately. Then, Kv4.2, Kv4.3, Nav1.5 and Nav1.7 constructs were transiently transfected into the human embryonic kidney 293t (HEK293t) cells using lipofectamine 2000 (Invitrogen, USA) in accordance with manufacturer protocols. Thereafter, HEK293 cells were inoculated within Dulbecco’s modified Eagle’s medium (DMEM) containing 10% fetal bovine serum (FBS) at 5% CO2 and 37°C. The Kv4.3 channel and the Kv4.2 counterpart were then transfected in the absence of β subunit. Subsequently, cells were incubated with a DNA-lipofectamine mixture (one reporter plasmid for green fluorescence protein and channel constructs) for 4-6 h, and were washed with the fresh medium.
Briefly, plasmids were linearized, and transcription was carried out according to the standardized protocol. Afterwards, the capped cRNAs that encoded the related ion channels were prepared. […]

## CC(C)C[C@@H]1NC(=O)[C@H](CCCCN)NC(=O)[C@H](Cc2ccc(O)cc2)NC(=O)[C@@H]2CSSC[C@@H]3NC(=O)[C@H](Cc4ccc(O)cc4)NC(=O)[C@H](Cc4ccccc4)NC(=O)CNC(=O)[C@H](C)NC(=O)[C@H](CSSC[C@H](NC(=O)[C@@H](N)CC(C)C)C(=O)N[C@@H](CO)C(=O)N[C@@H](CCCNC(=N)N)C(=O)N[C@@H](CCC(=O)O)C(=O)NCC(=O)N[C@@H](CCC(=O)O)C(=O)N[C@@H](Cc4ccccc4)C(=O)N2)NC(=O)[C@H](CSSC[C@@H](C(=O)N[C@@H](Cc2ccc(O)cc2)C(=O)N[C@@H](CCCNC(=N)N)C(=O)N[C@@H](CC(N)=O)C(=O)O)NC(=O)[C@H](Cc2c[nH]cn2)NC(=O)[C@H](CC(C)C)NC(=O)[C@H](C(C)C)NC(=O)[C@H](Cc2ccccc2)NC(=O)[C@H](C)NC(=O)[C@H](CCCCN)NC3=O)NC(=O)[C@H](CCCCN)NC(=O)[C@H](CCCNC(=N)N)NC1=O [JZTX-X, Jingzhaotoxin-X] (H-LCSREGEFCYKLRKCCAGFYCKAFVLHCYRN-OH; disulfide 2-16, 9-21, 15-28; N-terminus assumed)
0.1 μM (100 nM)
  inhibition at 0.1 µM: 57.8 ± 4.6%
0.5 μM (500 nM)
  inhibition at 0.5 µM: 83.8 ± 5.1%
